Experimental data published in patent US20240325373A1, “METHODS AND COMPOSITIONS FOR INHIBITION OF DIHYDROOROTATE DEHYDROGENASE IN COMBINATION WITH AN ANTI-CD47-SIRPA THERAPEUTIC AGENT” (OHIO STATE INNOVATION FOUNDATION, priority 2021, published 2024).

What was measured:
[1] = test system: MV4-11 P53 wild type, heterozygous and homozygous clones; test: Sensitivity and CD47/SIRPα surface expression of MV4-11 P53 clones treated with DHODHi; assay type: cell-based; conditions: 72 h; reversed with 0.1 mM exogenous uridine
Protocol: MV4-11 cell line was reported to harbor a R248W TP53 hotspot mutation (Yan B, Chen Q, Xu J, Li W, Xu B, Qiu Y. Leukemia 2020 doi 10.1038/s41375-020-0710-7.). Accordingly, the MV4-11 cell line was single cell sorted to separate the P53 mutant sub-clone and generated three clones; P53 wild type, P53 heterozygous, and P53 homozygous to interrogate the potential role of P53 mutation on DHODHi activity and if DHODHi affected CD47 expression. Therefore, MV4-11 clones were treated with DHODHi, brequinar (BRQ) or Cpd4 for 72 hours. Cells were then collected, washed with PBS then stained for flow cytometry analysis of CD47 surface expression and the overall sensitivity of the MV4-11 clones to DHODHi.
(§1) FIGS. 8A-8B show representative data for the Mean Fluorescent Intensity (MFI) of SIRPα (CD172a) surface expression following the indicated treatments. […] Briefly, cells were treated for 72 hours to determine SIRPα level using flow cytometry and determine if SIRPα level was different in the P53 mutant clones. As shown, SIRPα level appears modestly higher in the heterozygous P53 MV4-11 clone. […] Briefly, MV4-11 cells were treated for 72 hours with DHODHi with or without uridine to measure SIRPα surface expression post DHODHi therapy.

MV4-11 cells = test: CALR, CD47 and SIRPα surface expression (MFI, flow cytometry) in MV4-11 cells after DHODHi treatment with or without uridine; assay type: cell-based; conditions: 72 h; BRQ 500 nM, Cpd4 10, 25, 50, 100 nM, BAY 1 nM; reversible with 0.1 mM uridine
Protocol: MV4-11 cells were treated with vehicle (DMSO), brequinar (BRQ, 500 nM), Cpd4 (10, 25, 50, 100 nM), or BAY2402234 (BAY, 1 nM) for 72 hours, in the presence or absence of exogenous uridine (0.1 mM). After the 72-hour treatment, cells were collected, washed and stained for flow cytometric analysis and the mean fluorescent intensity (MFI) measured to determine calreticulin (CALR) and CD47 surface expression.
as §1

MOLM-13 cells = test: Disseminated MOLM-13 xenograft, treatment from 4 days after implantation (Example 5); assay type: in vivo; design: ILS / Median survival: unit not given here; conditions: for Statistical Significance: vs vehicle; for Median survival Ratio: Column A (vehicle) to Column B; for Median survival: treated group; for Hazard Ratio (Logrank) Ratio / Hazard Ratio (Mantel-Haenszel) Ratio: vehicle (Group 1) vs treated
Protocol: Briefly, ten week old male NCG mice (NOD-Prkdcem26Cd52//2rgem26Cd22/NjuCrl, Charles River) were injected intravenously (i.v.) in the tail vein with 1×10^5 MOLM-13 cells resuspended in cold phosphate buffer saline (PBS), using 0.2 mL of a suspension at 5×10^5 MOLM-13 cells/mL. Four days after tumor cell implantation, which was designated as Day 1 of the study, mice were randomized into eight treatment groups (n=10) based on body weights. Note that for the sample administration above, vehicle was a 50/50 mix of 40% HPBCD in sterile water and 10% Ethanol/90% PEG400. […] The remaining mice were left on study to monitor for an additional 25 days to determine if any residual disease would relapse following drug cessation. Thus, at day 106, all remaining mice were euthanized and spleens and bone marrow were harvested and analyzed by flow cytometry to investigate whether residual disease was present.

[2] = test system: a variety of unrelated viruses; conditions: in vitro; Harvey et al. (2009); read-out: EC50, inhibition of virus replication; cited from earlier work
MM1.S = test: CD47 surface expression by flow cytometry in multiple myeloma cell line MM1.S; assay type: cell-based; conditions: from 48 h after the start of treatment
Protocol: (§2) Briefly, tumor cells were typically grown at 37° C. in a humidified atmosphere with 5% C02 in RPMI 1640 medium, supplemented with 10% (v/v) fetal calf serum and 50 μg/ml gentamicin for up to 20 passages, and were typically passaged once or twice weekly. Cells were harvested by centrifugation, and the percentage of viable cells were determined using a CASY Model TT cell counter (OMNI Life Science). Cells were harvested from exponential phase cultures, counted and plated in […] plates at a cell density depending on the cell line's growth rate in RPMI 1640 medium supplemented with 10% (v/v) fetal calf serum and 50 µg/ml gentamicin (140 μl/well). At the time of plating, a t=0 h timepoint was taken as a baseline measurement (dotted horizontal lines in the figures). Cultures were incubated at 37° C. and 5% C02 in a humidified atmosphere. At 24 h after cell seeding, DMSO (vehicle control) or the test compound at three different concentrations was added, and left on the cells for another 48 h, 96 h, or 144 h. […] After standard washing techniques, the cells were analyzed on an Attune NxT Acoustic Focusing Cytometer (Thermo Fisher Scientific, Waltham, MA). Antibody Binding Capacity (ABC) was determined using Quantum™ Simply Cellular® quantification beads (Bio-Rad Laboratories, Hercules, CA).

U266B1 = test: CD47 surface expression and viability by flow cytometry in multiple myeloma cell line U266B1; assay type: cell-based; conditions: three concentrations of Cpd4
Protocol: as §2

MOLM-13 tumor cells = test: Disseminated MOLM-13 aggressive xenograft, treatment from 10 days after implantation (Example 6); assay type: in vivo; conditions: for BW Nadir (Lowest Mean Body Weight for Group): % of initial mean BW
Protocol: Briefly, NCG mice were i.v. injected in the tail vein with 1×10^5 MOLM-13 tumor cells suspended in PBS in a cell injection volume of 0.2 mL/mouse. Animals were randomized into treatment groups based on Day 1 body weight. The study start date (Day 1) was at 10 days post implant (tumor injection). In the study, males were separated into single housing if excessive fighting or aggressive behavior was observed. The animals were 8 to 12 weeks old at study start. […] Any group with a mean body weight loss of >20% or >10% mortality had dosing terminated, but not euthanized, and allowed to recover. Within a group, any individual animal with a >20% weight loss endpoint were euthanized. […] At the endpoint, the animals were euthanized per standard procedure. Clinical signs associated with progression of tumor include impairment of hind limb function, ocular proptosis, and weight loss. Full hindlimb paralysis, ocular proptosis, or moribundity were considered sufficient for euthanasia.

[3] = Separate cell-based assays (IC50 of Cpd4)
H929 = test: CD47 surface expression by flow cytometry in multiple myeloma cell line H929; assay type: cell-based; conditions: from 48 h after the start of treatment
Protocol: as §2

Cc1c(-c2ccc(-c3ccccc3F)cc2)nc2ccc(F)cc2c1C(=O)O [BRQ, 6-fluoro-2-(2′-fluoro-1,1-biphenyl-4-yl)-3-methyl-4-quinolinecarboxylic acid, reference compound]
CD47 surface expression [1]: upregulate surface CD47 expression regardless of the P53 mutation status
SIRPα surface expression [1]: upregulate surface SIRPα expression regardless of the P53 mutation status
CALR surface expression (MFI) (MV4-11 cells): upregulated
CD47 surface expression (MFI) (MV4-11 cells): upregulated

CCn1c(CO)nn(-c2cc(O[C@@H](C)C(F)(F)F)c(C(=O)Nc3c(F)cccc3Cl)cc2F)c1=O [BAY2402234, N-(2-chloro-6-fluorophenyl)-4-(4-ethyl-3-(hydroxymethyl)-5-oxo-4,5-dihydro-1H-1,2,4-triazol-1-yl)-5-fluoro-2-((1,1,1-trifluoropropan-2-yl)oxy)benzamide, reference compound]
Deaths NTRa (MOLM-13 cells; 4 mg/kg po qd): 1
ILS (MOLM-13 cells; 4 mg/kg po qd): 144
Mean BW Nadir (MOLM-13 cells; 4 mg/kg po qd): −5.7%
Median TTE (MOLM-13 cells; 4 mg/kg po qd): 44.0
n Remaining Day 106 (MOLM-13 cells; 4 mg/kg po qd): 0
Statistical Significance (MOLM-13 cells; 4 mg/kg po qd): *** (*** = P ≤ 0.001)
Median survival Ratio (MOLM-13 cells; 4 mg/kg po qd): 0.4091
Median survival (MOLM-13 cells; 4 mg/kg po qd): 44
Hazard Ratio (Logrank) Ratio (MOLM-13 cells; 4 mg/kg po qd): 4.397
Hazard Ratio (Mantel-Haenszel) Ratio (MOLM-13 cells; 4 mg/kg po qd): 21.48
CALR surface expression (MFI) (MV4-11 cells): upregulated
CD47 surface expression (MFI) (MV4-11 cells): upregulated

O=C(N[C@@H]1CCCc2c1[nH]c1ccc(Cl)cc21)c1ccccn1 [GSK983]
EC50 [2]: 5 to 20 nM

CCCCOc1cccc(-c2ccc(-c3cc(C(=O)O)c4cc(F)ccc4n3)cc2)c1 [Cpd4, 2-(3′-butoxy-[1,1′-biphenyl]-4-yl)-6-fluoroquinoline-4-carboxylic acid]
CD47 surface expression (MM1.S): increase in CD47 surface expression in these cell lines apparent starting at 48 h
ILS (MOLM-13 cells; 4 mg/kg po qd): 125
Mean BW Nadir (MOLM-13 cells; 4 mg/kg po qd): −4.1%
Median TTE (MOLM-13 cells; 4 mg/kg po qd): 40.5
n Remaining Day 106 (MOLM-13 cells; 4 mg/kg po qd): 0
Statistical Significance (MOLM-13 cells; 4 mg/kg po qd): *** (*** = P ≤ 0.001)
Deaths TR (MOLM-13 cells; 10 mg/kg po qd): 0
ILS (MOLM-13 cells; 10 mg/kg po qd): 183
Mean BW Nadir (MOLM-13 cells; 10 mg/kg po qd): −3.5%
Median TTE (MOLM-13 cells; 10 mg/kg po qd): 51.0
n Remaining Day 106 (MOLM-13 cells; 10 mg/kg po qd): 0
Statistical Significance (MOLM-13 cells; 10 mg/kg po qd): *** (*** = P ≤ 0.001)
Median survival Ratio (MOLM-13 cells; 4 mg/kg po qd): 0.4444
Median survival Ratio (MOLM-13 cells; 10 mg/kg po qd): 0.3529
Median survival (MOLM-13 cells; 4 mg/kg po qd): 40.5
Median survival (MOLM-13 cells; 10 mg/kg po qd): 51
Hazard Ratio (Logrank) Ratio (MOLM-13 cells; 4 mg/kg po qd): 4.553
Hazard Ratio (Mantel-Haenszel) Ratio (MOLM-13 cells; 4 mg/kg po qd): 25.21
Hazard Ratio (Logrank) Ratio (MOLM-13 cells; 10 mg/kg po qd): 4.553
Hazard Ratio (Mantel-Haenszel) Ratio (MOLM-13 cells; 10 mg/kg po qd): 25.21
CD47 surface expression [1]: upregulate surface CD47 expression regardless of the P53 mutation status
SIRPα surface expression [1]: upregulate surface SIRPα expression regardless of the P53 mutation status
overall cell viability (U266B1; 48 h, 96 h, 144 h): dose-dependent correlation in Cpd4 concentration and overall cell viability
surface expression of CD47 (median fluorescence intensity, antibody binding capacity) (U266B1; 96 h and 144 h): increased in a dose-dependent manner
ILS (Increased Life Span) (MOLM-13 tumor cells; Cpd4 4.12 mg/kg po qd to end): 174.1
Median TTE (Median Time to Endpoint) (MOLM-13 tumor cells; Cpd4 4.12 mg/kg po qd to end): 37 days
NTR (No. of Non-treatment-related Deaths, due to Accident/Unknown Etiology) (MOLM-13 tumor cells; Cpd4 4.12 mg/kg po qd to end): 0
NTRm (No. of Non-treatment-related Deaths, due to Metastasis) (MOLM-13 tumor cells; Cpd4 4.12 mg/kg po qd to end): 0
TR (No. of Treatment-related Deaths) (MOLM-13 tumor cells; Cpd4 4.12 mg/kg po qd to end): 0
s (Number of Remaining Animals) (MOLM-13 tumor cells; Cpd4 4.12 mg/kg po qd to end): 0
BW Nadir (Lowest Mean Body Weight for Group) (MOLM-13 tumor cells; Cpd4 4.12 mg/kg po qd to end): −9.0% (35)
ILS (Increased Life Span) (MOLM-13 tumor cells; Cpd4 10.31 mg/kg po qd to end): 225.9
Median TTE (Median Time to Endpoint) (MOLM-13 tumor cells; Cpd4 10.31 mg/kg po qd to end): 44 days
NTR (No. of Non-treatment-related Deaths, due to Accident/Unknown Etiology) (MOLM-13 tumor cells; Cpd4 10.31 mg/kg po qd to end): 0
NTRm (No. of Non-treatment-related Deaths, due to Metastasis) (MOLM-13 tumor cells; Cpd4 10.31 mg/kg po qd to end): 0
TR (No. of Treatment-related Deaths) (MOLM-13 tumor cells; Cpd4 10.31 mg/kg po qd to end): 0
s (Number of Remaining Animals) (MOLM-13 tumor cells; Cpd4 10.31 mg/kg po qd to end): 5
BW Nadir (Lowest Mean Body Weight for Group) (MOLM-13 tumor cells; Cpd4 10.31 mg/kg po qd to end): −5.2% (42)
CALR surface expression (MFI) (MV4-11 cells): upregulated
CD47 surface expression (MFI) (MV4-11 cells): upregulated
IC50 [3]: 11 nM
CD47 surface expression (H929): increase in CD47 surface expression in these cell lines apparent starting at 48 h
